Test results as given in patent US9499548B2, “Inhibitors of bruton's tyrosine kinase” (Hoffmann-La Roche Inc., priority 2012, dated 2016).
pIC50: −log10 of the molar value.

System: B cell receptor-mediated activation of B cells in human blood (CD69 expression)
Test: Inhibition of B cell activation in whole blood measured by CD69 expression
Type: cell-based
Details: anti-IgM stimulation, 20 hours, concentration decreasing by 50% the CD69-positive cells that are also CD20-positive
Experimental: Inhibition of B Cell Activation in Whole Blood Measured by CD69 Expression
A procedure to test the ability of Btk inhibitors to suppress B cell receptor-mediated activation of B cells in human blood is as follows:
Human whole blood (HWB) is obtained from healthy volunteers, with the following restrictions: 24 hr drug-free, non-smokers. Blood is collected by venipuncture into Vacutainer tubes anticoagulated with sodium heparin. Test compounds are diluted to ten times the desired starting drug concentration in PBS (20×), followed by three-fold serial dilutions in 10% DMSO in PBS to produce a nine point dose-response curve. 5.5 μl of each compound dilution is added in duplicate to a 2 ml 96-well V bottom plate (Analytical Sales and Services, #59623-23); 5.5 μl of 10% DMSO in PBS is added to control and no-stimulus wells. HWB (100 μl) is added to each well, and after mixing the plates are incubated at 37 C, 5% CO2, 100% humidity for 30 minutes. Goat F(ab′)2 anti-human IgM (Southern Biotech, #2022-14) (10 μl of a 500 μg/ml solution, 50 μg/ml final concentration) is added to each well (except the no-stimulus wells) with mixing and the plates are incubated for an additional 20 hours.
At the end of the 20 hour incubation, samples are incubated with florescent-probe-labeled antibodies (15 μl PE Mouse anti-Human CD20, BD Pharmingen, #555623, and/or 20 ul APC Mouse anti-Human CD69, BD Pharmingen #555533) for 30 minutes, at 37 C, 5% CO2, 100% humidity. Included are induced control, unstained and single stains for compensation adjustments and initial voltage settings. Samples are then lysed with 1 ml of 1× Pharmingen Lyse Buffer (BD Pharmingen #555899), and plates are centrifuged at 1800 rpm for 5 minutes. Supernatants are removed via suction and the remaining pellets are lysed again with another 1 ml of 1× Pharmingen Lyse Buffer, and plates are spun down as before. Supernatants are aspirated and remaining pellets are washed in FACs buffer (PBS+1% FBS). After a final spin, the supernatants are removed and pellets are resuspended in 180 μl of FACs buffer. Samples are transferred to a 96 well plate suitable to be run on the HTS 96 well system on the BD LSR II flow cytometer.
Using appropriate excitation and emission wavelengths for the fluorophores used, data are acquired and percent positive cell values are obtained using Cell Quest Software. Results are initially analyzed by FACS analysis software (Flow Jo). […] The IC50 values are calculated using XLfit software version 3, equation 201.
Representative compound data for this assay are listed below in Table II.

SMILES | pIC50
CN1CCn2nc(Nc3cc(-c4cccc(-n5ncc6cc(C(C)(C)C)ccc6c5=O)c4CO)nn(C)c3=O)cc2C1 [Compound I-8, 6-tert-Butyl-2-{2-hydroxymethyl-3-[1-methyl-5-(5-methyl-4,5,6,7-tetrahydro-pyrazolo[1,5-a]pyrazin-2-ylamino)-6-oxo-1,6-dihydro-pyridazin-3-yl]-phenyl}-2H-phthalazin-1-one] | 7.38
Cn1nc(-c2cccc(-n3ncc4cc(C(C)(C)C)ccc4c3=O)c2CO)cc(Nc2ccc(C3CCN(C4COC4)CC3)cn2)c1=O [Compound I-13, 6-tert-Butyl-2-{2-hydroxymethyl-3-[1-methyl-5-(1′-oxetan-3-yl-1′,2′,3′,4′,5′,6′-hexahydro-[3,4′]bipyridinyl-6-ylamino)-6-oxo-1,6-dihydro-pyridazin-3-yl]-phenyl}-2H-phthalazin-1-one] | 6.73
Cn1nc(-c2cccc(-n3ncc4cc(C(C)(C)C)ccc4c3=O)c2CO)cc(Nc2ccc(OC(C)(C)CN3CC(F)(F)C3)cn2)c1=O [Compound I-14, 6-tert-Butyl-2-[3-(5-{5-[2-(3,3-difluoro-azetidin-1-yl)-1,1-dimethyl-ethoxy]-pyridin-2-ylamino}-1-methyl-6-oxo-1,6-dihydro-pyridazin-3-yl)-2-hydroxymethyl-phenyl]-2H-phthalazin-1-one] | 6.24
CN1CCC(c2ccc(Nc3cc(-c4cccc(-n5ncc6cc(C(C)(C)C#N)ccc6c5=O)c4CO)nn(C)c3=O)nc2)CC1 [Compound I-7, 2-(2-{2-Hydroxymethyl-3-[1-methyl-5-(1′-methyl-1′,2′,3′,4′,5′,6′-hexahydro-[3,4′]bipyridinyl-6-ylamino)-6-oxo-1,6-dihydro-pyridazin-3-yl]-phenyl}-1-oxo-1,2-dihydro-phthalazin-6-yl)-2-methyl-propionitrile] | 7.42
Cn1nc(-c2cccc(-n3ncc4cc(C(C)(C)C)ccc4c3=O)c2CO)cc(Nc2ccc(C(=O)N3CCOCC3)cn2)c1=O [Compound I-10, 6-tert-Butyl-2-(2-hydroxymethyl-3-{1-methyl-5-[5-(morpholine-4-carbonyl)-pyridin-2-ylamino]-6-oxo-1,6-dihydro-pyridazin-3-yl}-phenyl)-2H-phthalazin-1-one] | 7.33
Cn1nc(-c2cccc(-n3ncc4cc(C(C)(C)C)ccc4c3=O)c2CO)cc(Nc2ccc(OC(C)(C)CNCCCO)cn2)c1=O [Compound I-12, 6-tert-Butyl-2-[2-hydroxymethyl-3-(5-{5-[2-(3-hydroxy-propylamino)-1,1-dimethyl-ethoxy]-pyridin-2-ylamino}-1-methyl-6-oxo-1,6-dihydro-pyridazin-3-yl)-phenyl]-2H-phthalazin-1-one] | 6.73
CN1CCC(c2ccc(Nc3cc(-c4cccc(N5CCc6cc(C(C)(C)C#N)ccc6C5=O)c4CO)nn(C)c3=O)nc2)CC1 [Compound I-15, 2-(2-{2-Hydroxymethyl-3-[1-methyl-5-(1′-methyl-1′,2′,3′,4′,5′,6′-hexahydro-[3,4′]bipyridinyl-6-ylamino)-6-oxo-1,6-dihydro-pyridazin-3-yl]-phenyl}-1-oxo-1,2,3,4-tetrahydro-isoquinolin-6-yl)-2-methyl-propionitrile] | 6.70
CN1CC[C@H](c2ccc(Nc3cc(-c4cccc(-n5ncc6cc(C(C)(C)C)ccc6c5=O)c4CO)nn(C)c3=O)nc2)C1 [Compound I-6, 6-tert-Butyl-2-(2-hydroxymethyl-3-{1-methyl-5-[5-((R)-1-methyl-pyrrolidin-3-yl)-pyridin-2-ylamino]-6-oxo-1,6-dihydro-pyridazin-3-yl}-phenyl)-2H-phthalazin-1-one] | 7.44
Cn1nc(-c2cccc(-n3ncc4cc(C(C)(C)C#N)ccc4c3=O)c2CO)cc(Nc2ccc(OC(C)(C)CN3CCC3)cn2)c1=O [Compound I-11, 2-[2-(3-{5-[5-(2-Azetidin-1-yl-1,1-dimethyl-ethoxy)-pyridin-2-ylamino]-1-methyl-6-oxo-1,6-dihydro-pyridazin-3-yl}-2-hydroxymethyl-phenyl)-1-oxo-1,2-dihydro-phthalazin-6-yl]-2-methyl-propionitrile] | 6.87
CCN1CCC(c2ccc(Nc3cc(-c4cccc(-n5ncc6cc(C(C)(C)C)ccc6c5=O)c4CO)nn(C)c3=O)nc2)CC1 [Compound I-9, 6-tert-Butyl-2-{3-[5-(1′-ethyl-1′,2′,3′,4′,5′,6′-hexahydro-[3,4′]bipyridinyl-6-ylamino)-1-methyl-6-oxo-1,6-dihydro-pyridazin-3-yl]-2-hydroxymethyl-phenyl}-2H-phthalazin-1-one] | 7.35

The remaining compounds from weak to strong by pIC50, led by results:

pIC50 | SMILES
7.46 | CN1CC[C@@H](c2ccc(Nc3cc(-c4cccc(-n5ncc6cc(C(C)(C)C)ccc6c5=O)c4CO)nn(C)c3=O)nc2)C1 [Compound I-5, 6-tert-Butyl-2-(2-hydroxymethyl-3-{1-methyl-5-[5-((S)-1-methyl-pyrrolidin-3-yl)-pyridin-2-ylamino]-6-oxo-1,6-dihydro-pyridazin-3-yl}-phenyl)-2H-phthalazin-1-one]
7.49 | CN1CCC[C@H]1c1ccc(Nc2cc(-c3cccc(-n4ncc5cc(C(C)(C)C)ccc5c4=O)c3CO)nn(C)c2=O)nc1 [Compound I-4, 6-tert-Butyl-2-(2-hydroxymethyl-3-{1-methyl-5-[5-((S)-1-methyl-pyrrolidin-2-yl)-pyridin-2-ylamino]-6-oxo-1,6-dihydro-pyridazin-3-yl}-phenyl)-2H-phthalazin-1-one]
7.52 | Cn1nc(Nc2cc(-c3cccc(-n4ncc5cc(C(C)(C)C)ccc5c4=O)c3CO)nn(C)c2=O)cc1CN1CCC1 [Compound I-3, 2-{3-[5-(5-Azetidin-1-ylmethyl-1-methyl-1H-pyrazol-3-ylamino)-1-methyl-6-oxo-1,6-dihydro-pyridazin-3-yl]-2-hydroxymethyl-phenyl}-6-tert-butyl-2H-phthalazin-1-one]
8.00 | CN1CCC(c2ccc(Nc3cc(-c4cccc(-n5ncc6cc(C(C)(C)C)ccc6c5=O)c4CO)nn(C)c3=O)nc2)CC1 [Compound I-2, 6-tert-Butyl-2-{2-hydroxymethyl-3-[1-methyl-5-(1′-methyl-1′,2′,3′,4′,5′,6′-hexahydro-[3,4′]bipyridinyl-6-ylamino)-6-oxo-1,6-dihydro-pyridazin-3-yl]-phenyl}-2H-phthalazin-1-one]
8.22 | Cn1nc(-c2cccc(-n3ncc4cc(C(C)(C)C)ccc4c3=O)c2CO)cc(Nc2ccc(OC(C)(C)CN3CCC3)cn2)c1=O [Compound I-1, 2-(3-{5-[5-(2-Azetidin-1-yl-1,1-dimethyl-ethoxy)-pyridin-2-ylamino]-1-methyl-6-oxo-1,6-dihydro-pyridazin-3-yl}-2-hydroxymethyl-phenyl)-6-tert-butyl-2H-phthalazin-1-one]
